Test results: patent US20240270762A1, “PENICILLIN-BINDING PROTEIN INHIBITORS” (priority 2021, published 2024)
≈ marks a conversion by molar mass, not a printed value.

Experiments:
N. gonorrhoeae WHO L = assay: Liquid broth MIC in Fastidious broth; conditions: Neisseria gonorrhoeae, read-out: Minimum Inhibitory Concentration (MIC), N. gonorrhoeae WHO L
E. coli D22 = assay: microbe, parasite or virus in culture; assay type: cell-based; conditions: Escherichia coli, D22, read-out: MIC E. coli D22
P. aeruginosa ATCC 35151 = assay: microbe, parasite or virus in culture; assay type: cell-based; conditions: Pseudomonas aeruginosa, ATCC35151, read-out: MIC P. aeruginosa ATCC 35151
K. pneumoniae UMM = assay: microbe, parasite or virus in culture; assay type: cell-based; conditions: Klebsiella pneumoniae, read-out: MIC K. pneumoniae UMM
E. coli AG100A = assay: Broth microdilution MIC in CAMHB; assay type: cell-based; conditions: Escherichia coli, read-out: MIC E. coli AG100A
N. gonorrhoeae WHO K = assay: Liquid broth MIC in Fastidious broth; conditions: Neisseria gonorrhoeae, read-out: Minimum Inhibitory Concentration (MIC), N. gonorrhoeae WHO K
[1] = test system: N. gonorrhoeae ATCC 49226; assay: Liquid broth MIC in Fastidious broth; conditions: Neisseria gonorrhoeae, ATCC49226, read-out: Minimum Inhibitory Concentration (MIC), N. gonorrhoeae ATCC 49226
N. gonorrhoeae CDC-0197 = assay: Liquid broth MIC in Fastidious broth; conditions: Neisseria gonorrhoeae, CDC0197, read-out: Minimum Inhibitory Concentration (MIC), N. gonorrhoeae CDC-0197
N. gonorrhoeae WHO Z = assay: Liquid broth MIC in Fastidious broth; conditions: Neisseria gonorrhoeae, read-out: Minimum Inhibitory Concentration (MIC), N. gonorrhoeae WHO Z
N. gonorrhoeae WHO Q = assay: Liquid broth MIC in Fastidious broth; conditions: Neisseria gonorrhoeae, read-out: Minimum Inhibitory Concentration (MIC), N. gonorrhoeae WHO Q
N. gonorrhoeae WHO M = assay: Liquid broth MIC in Fastidious broth; conditions: Neisseria gonorrhoeae, read-out: Minimum Inhibitory Concentration (MIC), N. gonorrhoeae WHO M
[2] = molecular target: T1, PBP3 from Escherichia coli (K-12) (Escherichia coli, UniProt P0AD68); assay: Bocillin-FL fluorescence polarization competition binding, E. coli PBP3
T1 construct: made in house
In short: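 Purified PBPs pre-incubated with inhibitor (E. coli PBP3 1.5 μM, 30 min; P. aeruginosa PBP3 0.75 μM, A. baumannii PBP1a 1 μM and PBP3 0.2 μM, 15 min), then Bocillin-FL 0.1 μM (0.05 μM for PBP1a) added; FP read up to 60 min. EC50 = concentration halving bound Bocillin-FL.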

K. pneumoniae SI-117 = assay: microbe, parasite or virus in culture; assay type: cell-based; conditions: Klebsiella pneumoniae, SI117, read-out: MIC K. pneumoniae SI-117
A. baumannii ATCC 19606 = assay: microbe, parasite or virus in culture; assay type: cell-based; conditions: Acinetobacter baumannii, ATCC19606, read-out: MIC, A. baumannii ATCC 19606
E. coli ATCC 25922 = assay: microbe, parasite or virus in culture; assay type: cell-based; conditions: Escherichia coli, ATCC25922, read-out: MIC E. coli 25922
N. gonorrhoeae MS11 = assay: Liquid broth MIC in Fastidious broth; conditions: Neisseria gonorrhoeae, MS11, read-out: Minimum Inhibitory Concentration (MIC), N. gonorrhoeae MS11
Experimental: Additional antibacterial testing of the series was performed in 8 reference strains of N. gonorrhoeae (ATCC 49226, FA1090, MS 11, WHO G, WHO L, WHO M, WHO K, WHO X, WHO Z, WHO Q, CDC-0197). ATCC 49226, FA1090, MS11, WHO G, WHO L, and WHO M produce wild type or wild-type like PBP2. WHO K, WHO X, WHO Z, WHO Q, and CDC-0197 produce mosaic PBP2. Liquid broth-based assays were used for antibacterial testing of PBP inhibitors in Neisseria gonorrhoeae. Briefly, cryo-preserved bacterial cultures of clinical strains were streaked for isolation on Chocolate Agar (72 g/L (2×) GC Agar Base (BD #228950) and 2% (2×) Hemoglobin was autoclaved at 121° C. for 20 minutes to sterilize. Once cooled to ˜50° C. the 2×GC Agar Base and 2× Hemoglobin solutions are combined and 1% IsoVitaleX Enrichment (BD #211876) was added to the solution). Strains were incubated at 36° C. and 5% CO2 to allow growth of colonies, 24 hours before inoculum preparation. 2-fold serial dilutions of test compounds were conducted in a 96 well plate with a final volume of 75 μL per well at 2-fold the final desired concentration in Fastidious broth (Remel #R07664). For preparation of assay inoculum, a direct suspension was prepared by aseptically swabbing 10-15 colonies from agar plates into culture tubes containing 2 mL of fresh sterile saline. After the dilution plates were set up, direct suspensions were then diluted in a cuvette containing sterile saline and the optical density was measured at 600 nm. Inocula were diluted such that 75 μL of this culture in Fastidious broth results in a starting bacterial concentration of 5×10^5 CFU/mL when added to the dilution plates. The plates were incubated for ˜24 hours at 36° C. and 5% CO2.

T1 sequence (P0AD68 1-577): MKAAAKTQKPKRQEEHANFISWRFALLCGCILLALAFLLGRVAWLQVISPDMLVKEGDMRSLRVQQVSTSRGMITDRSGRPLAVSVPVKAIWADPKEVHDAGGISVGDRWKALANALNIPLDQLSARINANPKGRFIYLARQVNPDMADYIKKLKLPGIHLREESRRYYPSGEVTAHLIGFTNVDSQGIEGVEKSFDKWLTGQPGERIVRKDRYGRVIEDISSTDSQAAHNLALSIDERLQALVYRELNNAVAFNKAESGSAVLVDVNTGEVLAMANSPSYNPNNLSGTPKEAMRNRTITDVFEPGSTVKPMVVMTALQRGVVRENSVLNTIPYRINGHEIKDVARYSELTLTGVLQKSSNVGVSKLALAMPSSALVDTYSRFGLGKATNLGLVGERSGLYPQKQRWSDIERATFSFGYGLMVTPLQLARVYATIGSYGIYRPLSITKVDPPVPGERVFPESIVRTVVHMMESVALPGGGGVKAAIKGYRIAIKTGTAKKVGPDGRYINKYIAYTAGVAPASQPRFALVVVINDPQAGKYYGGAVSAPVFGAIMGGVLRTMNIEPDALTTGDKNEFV

SMILES | MIC (N. gonorrhoeae WHO L) | MIC (E. coli D22) | MIC (P. aeruginosa ATCC 35151) | MIC (K. pneumoniae UMM) | MIC (E. coli AG100A) | MIC (N. gonorrhoeae WHO K) | MIC [1] | MIC (N. gonorrhoeae CDC-0197) | MIC (N. gonorrhoeae WHO Z) | MIC (N. gonorrhoeae WHO Q) | MIC (N. gonorrhoeae WHO M) | EC50 [2] | MIC (K. pneumoniae SI-117) | MIC (A. baumannii ATCC 19606) | MIC (E. coli ATCC 25922) | MIC (N. gonorrhoeae MS11)
CC(=O)NC(C(=O)N[C@H]1Cc2cccc(C(=O)O)c2OB1O)c1ccc(P(=O)(O)O)cc1 (stereo partly drawn) [Example 26, (3R)-3-(2-acetamido-2-(4-phosphonophenyl)acetamido)-2-hydroxy-3,4-dihydro-2H-benzo[e][1,2]oxaborinine-8-carboxylic acid] | 16 to 32 mg/L (≈ 34.6 to 69.2 µM) | 32 to 64 mg/L (≈ 69.2 to 138 µM) | 8 to 16 mg/L (≈ 17.3 to 34.6 µM) | > 128 mg/L | 32 to 64 mg/L (≈ 69.2 to 138 µM) | 16 to 32 mg/L (≈ 34.6 to 69.2 µM) | 16 to 32 mg/L (≈ 34.6 to 69.2 µM) | 16 to 32 mg/L (≈ 34.6 to 69.2 µM) | 16 to 32 mg/L (≈ 34.6 to 69.2 µM) | 16 to 32 mg/L (≈ 34.6 to 69.2 µM) | 4 to 8 mg/L (≈ 8.66 to 17.3 µM) | 50 to 250 µM | > 128 mg/L | > 128 mg/L | > 128 mg/L | 16 to 32 mg/L (≈ 34.6 to 69.2 µM)
CCN1CCN(C(=O)N[C@@H](C(=O)N[C@H]2Cc3cccc(C(=O)O)c3OB2O)c2ccc(P(=O)(O)O)c(F)c2)C(=O)C1=O (single isomer, unassigned) [Example 7] | < 1 mg/L | 2 to 4 mg/L (≈ 3.3 to 6.6 µM) | < 1 mg/L | 32 to 64 mg/L (≈ 52.8 to 106 µM) | 8 to 16 mg/L (≈ 13.2 to 26.4 µM) | < 1 mg/L | < 1 mg/L | < 1 mg/L | < 1 mg/L | < 1 mg/L | < 1 mg/L | < 10 µM | > 128 mg/L | 8 to 16 mg/L (≈ 13.2 to 26.4 µM) | 32 to 64 mg/L (≈ 52.8 to 106 µM) | < 1 mg/L
O=C(O)c1cccc2c1OB(O)[C@@H](NC(=O)[C@H](NC(=O)c1c[nH]ccc1=O)c1ccc(P(=O)(O)O)cc1)C2 [Example 175, (R)-2-hydroxy-3-((R)-2-(4-oxo-1,4-dihydropyridine-3-carboxamido)-2-(4-phosphonophenyl)acetamido)-3,4-dihydro-2H-benzo[e][1,2]oxaborinine-8-carboxylic acid] | 16 to 32 mg/L (≈ 29.6 to 59.1 µM) | 8 to 16 mg/L (≈ 14.8 to 29.6 µM) | < 1 mg/L | 32 to 64 mg/L (≈ 59.1 to 118 µM) | 32 to 64 mg/L (≈ 59.1 to 118 µM) | 16 to 32 mg/L (≈ 29.6 to 59.1 µM) | 1 to 2 mg/L (≈ 1.85 to 3.7 µM) | 4 to 8 mg/L (≈ 7.39 to 14.8 µM) | 4 to 8 mg/L (≈ 7.39 to 14.8 µM) | 4 to 8 mg/L (≈ 7.39 to 14.8 µM) | < 1 mg/L | < 10 µM | 32 to 64 mg/L (≈ 59.1 to 118 µM) | > 128 mg/L | 32 to 64 mg/L (≈ 59.1 to 118 µM) | 1 to 2 mg/L (≈ 1.85 to 3.7 µM)
CS(=O)(=O)N1CCC[C@@H]1C(=O)N[C@@H](C(=O)N[C@H]1Cc2cccc(C(=O)O)c2OB1O)c1ccc(P(=O)(O)O)cc1 [Example 35, (R)-2-hydroxy-3-((R)-2-((R)-1-(methylsulfonyl)pyrrolidine-2-carboxamido)-2-(4-phosphonophenyl)acetamido)-3,4-dihydro-2H-benzo[e][1,2]oxaborinine-8-carboxylic acid] | 16 to 32 mg/L (≈ 26.9 to 53.8 µM) | 8 to 16 mg/L (≈ 13.4 to 26.9 µM) | 2 to 4 mg/L (≈ 3.36 to 6.72 µM) | > 128 mg/L | > 128 mg/L | 4 to 8 mg/L (≈ 6.72 to 13.4 µM) | 1 to 2 mg/L (≈ 1.68 to 3.36 µM) | 4 to 8 mg/L (≈ 6.72 to 13.4 µM) | 4 to 8 mg/L (≈ 6.72 to 13.4 µM) | 4 to 8 mg/L (≈ 6.72 to 13.4 µM) | < 1 mg/L | 10 to 50 µM | > 128 mg/L | > 128 mg/L | > 128 mg/L | 1 to 2 mg/L (≈ 1.68 to 3.36 µM)
CC(C)C(=O)NC(C(=O)N[C@H]1Cc2cccc(C(=O)O)c2OB1O)c1ccc(P(=O)(O)O)cc1 (stereo partly drawn) [Example 28, (3R)-2-hydroxy-3-(2-isobutyramido-2-(4-phosphonophenyl)acetamido)-3,4-dihydro-2H-benzo[e][1,2]oxaborinine-8-carboxylic acid] | 16 to 32 mg/L (≈ 32.6 to 65.3 µM) | 32 to 64 mg/L (≈ 65.3 to 131 µM) | 8 to 16 mg/L (≈ 16.3 to 32.6 µM) | > 128 mg/L | > 128 mg/L | 16 to 32 mg/L (≈ 32.6 to 65.3 µM) | 16 to 32 mg/L (≈ 32.6 to 65.3 µM) | 16 to 32 mg/L (≈ 32.6 to 65.3 µM) | 16 to 32 mg/L (≈ 32.6 to 65.3 µM) | 16 to 32 mg/L (≈ 32.6 to 65.3 µM) | 4 to 8 mg/L (≈ 8.16 to 16.3 µM) | 50 to 250 µM | > 128 mg/L | > 128 mg/L | > 128 mg/L | 16 to 32 mg/L (≈ 32.6 to 65.3 µM)
NC(C(=O)N[C@H]1Cc2ccc(F)c(C(=O)O)c2OB1O)c1ccc(P(=O)(O)O)cc1 (stereo partly drawn) [Example 14, (3R)-3-(2-amino-2-(4-phosphonophenyl)acetamido)-7-fluoro-2-hydroxy-3,4-dihydro-2H-benzo[e][1,2]oxaborinine-8-carboxylic acid] | > 64 mg/L | > 128 mg/L | > 128 mg/L | > 128 mg/L | > 128 mg/L | > 64 mg/L | > 64 mg/L | > 64 mg/L | > 64 mg/L | > 64 mg/L | > 64 mg/L | > 250 µM | > 128 mg/L | > 128 mg/L | > 128 mg/L | > 64 mg/L
O=C(O)c1cccc2c1OB(O)[C@@H](NC(=O)[C@@H](NC(=O)c1cnc3sccn3c1=O)c1ccc(P(=O)(O)O)cc1)C2 (single isomer, unassigned) [Example 194] | 16 to 32 mg/L (≈ 26.7 to 53.5 µM) | 32 to 64 mg/L (≈ 53.5 to 107 µM) | 2 to 4 mg/L (≈ 3.34 to 6.69 µM) | > 128 mg/L | > 128 mg/L | 16 to 32 mg/L (≈ 26.7 to 53.5 µM) | 4 to 8 mg/L (≈ 6.69 to 13.4 µM) | 16 to 32 mg/L (≈ 26.7 to 53.5 µM) | 16 to 32 mg/L (≈ 26.7 to 53.5 µM) | 16 to 32 mg/L (≈ 26.7 to 53.5 µM) | 4 to 8 mg/L (≈ 6.69 to 13.4 µM) | 10 to 50 µM | > 128 mg/L | > 128 mg/L | > 128 mg/L | 4 to 8 mg/L (≈ 6.69 to 13.4 µM)
CS(=O)(=O)N1CCN(C(=O)N[C@@H](C(=O)N[C@H]2Cc3cccc(C(=O)O)c3OB2O)c2cc(F)c(P(=O)(O)O)c(F)c2)C1=O (single isomer, unassigned) [Example 18] | < 1 mg/L | 8 to 16 mg/L (≈ 12.4 to 24.8 µM) | 2 to 4 mg/L (≈ 3.09 to 6.19 µM) | 32 to 64 mg/L (≈ 49.5 to 99 µM) | 8 to 16 mg/L (≈ 12.4 to 24.8 µM) | < 1 mg/L | < 1 mg/L | < 1 mg/L | < 1 mg/L | < 1 mg/L | < 1 mg/L | < 10 µM | > 128 mg/L | 32 to 64 mg/L (≈ 49.5 to 99 µM) | 32 to 64 mg/L (≈ 49.5 to 99 µM) | < 1 mg/L
O=C(O)c1cccc2c1OB(O)[C@@H](NC(=O)C(NC(=O)C1CC1)c1ccc(P(=O)(O)O)cc1)C2 (stereo partly drawn) [Example 30, (3R)-3-(2-(cyclopropanecarboxamido)-2-(4-phosphonophenyl)acetamido)-2-hydroxy-3,4-dihydro-2H-benzo[e][1,2]oxaborinine-8-carboxylic acid] | 16 to 32 mg/L (≈ 32.8 to 65.5 µM) | 8 to 16 mg/L (≈ 16.4 to 32.8 µM) | 8 to 16 mg/L (≈ 16.4 to 32.8 µM) | > 128 mg/L | > 128 mg/L | 16 to 32 mg/L (≈ 32.8 to 65.5 µM) | 16 to 32 mg/L (≈ 32.8 to 65.5 µM) | 16 to 32 mg/L (≈ 32.8 to 65.5 µM) | 16 to 32 mg/L (≈ 32.8 to 65.5 µM) | 16 to 32 mg/L (≈ 32.8 to 65.5 µM) | 4 to 8 mg/L (≈ 8.19 to 16.4 µM) | 50 to 250 µM | > 128 mg/L | > 128 mg/L | > 128 mg/L | 16 to 32 mg/L (≈ 32.8 to 65.5 µM)
Nc1nc(C(=O)N[C@@H](C(=O)N[C@H]2Cc3cccc(C(=O)O)c3OB2O)c2ccc(P(=O)(O)O)cc2)cs1 (racemic) [Example 51, (R)-3-((S)-2-(2-aminothiazole-4-carboxamido)-2-(4-phosphonophenyl)acetamido)-2-hydroxy-3,4-dihydro-2H-benzo[e][1,2]oxaborinine-8-carboxylic acid and (R)-3-((R)-2-(2-aminothiazole-4-carboxamido)-2-(4-phosphonophenyl)acetamido)-2-hydroxy-3,4-dihydro-2H-benzo[e][1,2]oxaborinine-8-carboxylic acid] | 4 to 8 mg/L (≈ 7.32 to 14.6 µM) | 2 to 4 mg/L (≈ 3.66 to 7.32 µM) | 2 to 4 mg/L (≈ 3.66 to 7.32 µM) | 32 to 64 mg/L (≈ 58.6 to 117 µM) | 32 to 64 mg/L (≈ 58.6 to 117 µM) | 1 to 2 mg/L (≈ 1.83 to 3.66 µM) | < 1 mg/L | < 1 mg/L | 1 to 2 mg/L (≈ 1.83 to 3.66 µM) | 1 to 2 mg/L (≈ 1.83 to 3.66 µM) | < 1 mg/L | 10 to 50 µM | > 128 mg/L | > 128 mg/L | > 128 mg/L | < 1 mg/L
